Results as given in ChEMBL document CHEMBL3745662, “Preliminary investigation of 6,7-dihydropyrazolo[1,5-a]pyrazin-4-one derivatives as a novel series of mGlu5 receptor positive allosteric modulators with efficacy in preclinical models of schizophrenia” (Bioorg Med Chem Lett, 2016).

Columns and labels:
[1] = biological target: T1, Metabotropic glutamate receptor 5 (Homo sapiens, UniProt P41594); experiment: Positive allosteric modulation of human mGlu5 expressed in HEK293 cells assessed as glutamate-induced calcium mobilization; assay type: functional, cell-based
Target sequence in this assay (P41594 whole entry): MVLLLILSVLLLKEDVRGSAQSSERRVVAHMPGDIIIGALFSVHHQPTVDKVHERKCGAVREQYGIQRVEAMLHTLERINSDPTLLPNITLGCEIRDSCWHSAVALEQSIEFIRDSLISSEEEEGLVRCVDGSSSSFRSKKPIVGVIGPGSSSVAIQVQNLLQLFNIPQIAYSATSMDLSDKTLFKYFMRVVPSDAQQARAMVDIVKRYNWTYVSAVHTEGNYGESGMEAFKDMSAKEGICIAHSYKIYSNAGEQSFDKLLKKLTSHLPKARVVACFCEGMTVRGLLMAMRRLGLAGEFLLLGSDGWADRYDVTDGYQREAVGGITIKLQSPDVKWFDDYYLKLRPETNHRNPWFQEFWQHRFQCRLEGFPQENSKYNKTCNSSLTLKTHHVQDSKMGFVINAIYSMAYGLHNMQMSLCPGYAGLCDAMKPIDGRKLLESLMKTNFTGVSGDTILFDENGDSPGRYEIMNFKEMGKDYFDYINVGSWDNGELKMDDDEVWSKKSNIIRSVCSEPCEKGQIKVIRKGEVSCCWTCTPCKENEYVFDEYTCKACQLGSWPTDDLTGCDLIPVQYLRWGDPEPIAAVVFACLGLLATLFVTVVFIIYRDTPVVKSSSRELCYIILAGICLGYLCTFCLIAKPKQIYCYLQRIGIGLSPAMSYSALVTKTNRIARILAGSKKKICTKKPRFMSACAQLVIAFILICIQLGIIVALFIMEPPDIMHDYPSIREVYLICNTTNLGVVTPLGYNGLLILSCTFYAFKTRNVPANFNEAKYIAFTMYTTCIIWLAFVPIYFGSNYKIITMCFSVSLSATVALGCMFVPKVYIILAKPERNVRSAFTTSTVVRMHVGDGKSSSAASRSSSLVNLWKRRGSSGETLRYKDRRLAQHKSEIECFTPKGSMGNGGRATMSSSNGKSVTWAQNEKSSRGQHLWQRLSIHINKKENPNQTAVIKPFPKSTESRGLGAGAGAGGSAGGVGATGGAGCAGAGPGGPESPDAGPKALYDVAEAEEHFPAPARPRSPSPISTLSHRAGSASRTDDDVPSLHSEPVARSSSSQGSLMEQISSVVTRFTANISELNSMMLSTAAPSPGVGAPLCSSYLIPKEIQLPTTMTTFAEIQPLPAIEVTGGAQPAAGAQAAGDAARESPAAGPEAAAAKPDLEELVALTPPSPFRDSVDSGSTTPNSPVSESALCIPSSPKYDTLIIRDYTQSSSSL

[2] = Percentage unbound in rat brain; assay type: ADME, tissue-based; settings: brain tissue
[3] = biological target: T2, Metabotropic glutamate receptor 4 (Homo sapiens, UniProt Q14833); experiment: Positive allosteric modulation of human mGlu4 receptor expressed in HEK293 cells assessed as calcium mobilization by fluorescence analysis; assay type: functional, cell-based
T2 sequence (Q14833 whole entry): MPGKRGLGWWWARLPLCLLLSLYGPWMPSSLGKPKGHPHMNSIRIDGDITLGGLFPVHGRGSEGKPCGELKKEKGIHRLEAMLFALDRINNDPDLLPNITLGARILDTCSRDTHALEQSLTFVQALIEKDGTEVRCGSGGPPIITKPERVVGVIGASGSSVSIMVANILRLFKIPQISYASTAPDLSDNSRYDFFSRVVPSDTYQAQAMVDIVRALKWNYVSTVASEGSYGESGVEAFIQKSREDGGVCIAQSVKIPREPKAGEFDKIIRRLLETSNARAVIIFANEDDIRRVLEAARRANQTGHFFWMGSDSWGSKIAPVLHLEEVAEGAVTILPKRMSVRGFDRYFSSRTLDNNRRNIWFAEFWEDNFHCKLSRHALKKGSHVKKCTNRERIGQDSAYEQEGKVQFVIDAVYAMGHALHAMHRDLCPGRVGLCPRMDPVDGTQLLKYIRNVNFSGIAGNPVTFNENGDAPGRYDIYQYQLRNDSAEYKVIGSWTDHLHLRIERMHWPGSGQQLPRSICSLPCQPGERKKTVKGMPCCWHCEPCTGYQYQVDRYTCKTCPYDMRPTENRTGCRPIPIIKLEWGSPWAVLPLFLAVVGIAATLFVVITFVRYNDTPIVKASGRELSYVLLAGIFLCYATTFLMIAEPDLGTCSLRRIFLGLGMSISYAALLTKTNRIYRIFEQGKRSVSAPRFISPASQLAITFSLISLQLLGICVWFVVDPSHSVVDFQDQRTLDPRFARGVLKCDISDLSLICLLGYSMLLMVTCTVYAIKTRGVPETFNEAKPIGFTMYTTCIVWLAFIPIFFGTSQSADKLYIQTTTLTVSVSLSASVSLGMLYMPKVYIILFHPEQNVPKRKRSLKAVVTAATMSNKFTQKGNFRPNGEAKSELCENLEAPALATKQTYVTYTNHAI

[4] = biological target: Metabotropic glutamate receptor 2 (Homo sapiens, UniProt Q14416); experiment: Positive allosteric modulation of human mGlu2 receptor expressed in HEK293 cells assessed as calcium mobilization by fluorescence analysis; assay type: functional, cell-based
Sequence of Metabotropic glutamate receptor 2 (Q14416 whole entry): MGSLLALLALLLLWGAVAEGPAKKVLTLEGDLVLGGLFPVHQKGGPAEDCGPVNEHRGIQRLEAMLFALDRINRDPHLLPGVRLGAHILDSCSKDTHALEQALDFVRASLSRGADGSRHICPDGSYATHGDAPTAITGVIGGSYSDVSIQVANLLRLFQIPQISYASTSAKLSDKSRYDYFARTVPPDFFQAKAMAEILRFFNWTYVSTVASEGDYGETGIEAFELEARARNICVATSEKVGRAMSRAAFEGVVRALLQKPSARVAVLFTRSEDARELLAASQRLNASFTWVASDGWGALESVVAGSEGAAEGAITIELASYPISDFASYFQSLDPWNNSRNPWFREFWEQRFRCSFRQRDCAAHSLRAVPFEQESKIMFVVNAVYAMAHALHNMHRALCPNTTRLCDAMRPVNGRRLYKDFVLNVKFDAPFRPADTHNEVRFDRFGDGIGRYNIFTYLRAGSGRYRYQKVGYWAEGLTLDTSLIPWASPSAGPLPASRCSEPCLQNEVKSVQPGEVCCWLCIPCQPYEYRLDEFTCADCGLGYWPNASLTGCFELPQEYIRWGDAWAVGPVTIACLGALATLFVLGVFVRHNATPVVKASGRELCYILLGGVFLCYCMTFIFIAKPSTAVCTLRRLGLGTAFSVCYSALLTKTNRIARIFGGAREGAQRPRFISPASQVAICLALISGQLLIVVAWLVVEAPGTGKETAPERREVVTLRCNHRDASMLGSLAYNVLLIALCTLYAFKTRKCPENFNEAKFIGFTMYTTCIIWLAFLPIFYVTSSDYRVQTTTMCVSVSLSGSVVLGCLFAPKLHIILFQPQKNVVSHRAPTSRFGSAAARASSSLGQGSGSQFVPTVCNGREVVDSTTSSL

[5] = biological target: T1, Metabotropic glutamate receptor 5; experiment: Positive allosteric modulation of human mGlu5 expressed in HEK293 cells assessed as glutamate-induced calcium mobilization relative to glutamate; assay type: functional, cell-based
Target sequence in this assay (P41594 21-1212 limits assumed): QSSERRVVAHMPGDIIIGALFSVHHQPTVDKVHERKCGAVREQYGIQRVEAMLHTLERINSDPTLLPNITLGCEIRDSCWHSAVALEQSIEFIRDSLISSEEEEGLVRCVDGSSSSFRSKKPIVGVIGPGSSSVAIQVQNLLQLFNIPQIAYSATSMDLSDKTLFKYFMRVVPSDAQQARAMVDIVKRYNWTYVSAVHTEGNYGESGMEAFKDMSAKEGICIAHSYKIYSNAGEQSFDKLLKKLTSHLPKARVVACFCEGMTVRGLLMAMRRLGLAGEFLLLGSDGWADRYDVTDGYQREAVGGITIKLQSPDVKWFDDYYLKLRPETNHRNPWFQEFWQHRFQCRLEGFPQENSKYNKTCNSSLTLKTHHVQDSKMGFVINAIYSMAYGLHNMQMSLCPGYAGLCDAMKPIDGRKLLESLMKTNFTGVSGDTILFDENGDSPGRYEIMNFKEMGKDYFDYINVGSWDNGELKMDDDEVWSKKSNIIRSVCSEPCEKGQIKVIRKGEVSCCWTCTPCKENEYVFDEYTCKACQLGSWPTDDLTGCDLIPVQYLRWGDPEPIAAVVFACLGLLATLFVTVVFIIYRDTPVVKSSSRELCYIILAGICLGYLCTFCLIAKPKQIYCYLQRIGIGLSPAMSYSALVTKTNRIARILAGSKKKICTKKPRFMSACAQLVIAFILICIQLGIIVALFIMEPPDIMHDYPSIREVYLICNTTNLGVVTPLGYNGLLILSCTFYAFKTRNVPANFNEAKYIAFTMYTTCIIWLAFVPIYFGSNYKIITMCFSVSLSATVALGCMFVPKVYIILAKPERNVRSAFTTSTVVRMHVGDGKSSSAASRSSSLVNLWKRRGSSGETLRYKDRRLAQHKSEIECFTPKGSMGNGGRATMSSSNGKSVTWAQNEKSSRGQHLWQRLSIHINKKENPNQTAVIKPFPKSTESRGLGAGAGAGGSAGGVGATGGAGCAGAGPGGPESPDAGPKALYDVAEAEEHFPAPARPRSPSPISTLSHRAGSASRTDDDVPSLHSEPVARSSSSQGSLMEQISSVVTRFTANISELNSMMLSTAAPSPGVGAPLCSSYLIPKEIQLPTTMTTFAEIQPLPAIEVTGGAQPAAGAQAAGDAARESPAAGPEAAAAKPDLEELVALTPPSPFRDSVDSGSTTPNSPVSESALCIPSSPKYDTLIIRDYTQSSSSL

[6] = biological target: T2, Metabotropic glutamate receptor 4; experiment: Positive allosteric modulation of human mGlu4 receptor expressed in L929sA cells by [35S]-GTPgammaS binding assay; assay type: functional, cell-based
[7] = biological target: Metabotropic glutamate receptor 7 (Homo sapiens, UniProt Q14831); experiment: Positive allosteric modulation of human mGlu7 receptor expressed in HEK293 cells assessed as calcium mobilization by fluorescence analysis; assay type: functional, cell-based
[8] = biological target: Metabotropic glutamate receptor 8 (Homo sapiens, UniProt O00222); experiment: Positive allosteric modulation of human mGlu8 receptor expressed in HEK293 cells assessed as calcium mobilization by fluorescence analysis; assay type: functional, cell-based
[9] = biological target: Metabotropic glutamate receptor 1 (Homo sapiens, UniProt Q13255); experiment: Positive allosteric modulation of human mGlu1 receptor expressed in HEK293 cells assessed as calcium mobilization by fluorescence analysis; assay type: functional, cell-based
[10] = biological target: Metabotropic glutamate receptor 3 (Homo sapiens, UniProt Q14832); experiment: Antagonist activity at human mGlu3 expressed in HEK293 cells assessed as inhibition of glutamate-induced calcium mobilization; assay type: functional, cell-based
Sequence of Metabotropic glutamate receptor 3 (Q14832 whole entry): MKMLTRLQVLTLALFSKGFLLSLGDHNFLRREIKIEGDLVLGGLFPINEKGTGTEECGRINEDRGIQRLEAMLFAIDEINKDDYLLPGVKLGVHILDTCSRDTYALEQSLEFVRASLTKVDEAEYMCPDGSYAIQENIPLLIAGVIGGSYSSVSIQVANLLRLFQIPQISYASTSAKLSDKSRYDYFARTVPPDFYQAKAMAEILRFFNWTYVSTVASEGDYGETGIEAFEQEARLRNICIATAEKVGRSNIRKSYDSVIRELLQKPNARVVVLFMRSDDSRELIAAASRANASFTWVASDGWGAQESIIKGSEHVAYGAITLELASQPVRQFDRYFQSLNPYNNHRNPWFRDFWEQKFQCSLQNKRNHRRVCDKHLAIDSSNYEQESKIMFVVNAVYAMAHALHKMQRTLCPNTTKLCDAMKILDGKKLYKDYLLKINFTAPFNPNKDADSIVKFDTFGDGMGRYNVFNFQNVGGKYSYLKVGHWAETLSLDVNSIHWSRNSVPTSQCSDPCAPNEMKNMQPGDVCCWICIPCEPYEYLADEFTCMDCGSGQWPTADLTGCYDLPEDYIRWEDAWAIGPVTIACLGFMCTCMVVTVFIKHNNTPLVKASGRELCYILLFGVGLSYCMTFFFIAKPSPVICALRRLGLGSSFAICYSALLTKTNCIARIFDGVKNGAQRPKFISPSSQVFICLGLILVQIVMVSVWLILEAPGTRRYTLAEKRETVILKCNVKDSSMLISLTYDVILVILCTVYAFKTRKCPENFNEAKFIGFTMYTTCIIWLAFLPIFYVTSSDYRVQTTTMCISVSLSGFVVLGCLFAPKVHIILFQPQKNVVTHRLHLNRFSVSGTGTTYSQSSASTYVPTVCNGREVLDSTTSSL

[11] = biological target: T2, Metabotropic glutamate receptor 4; experiment: Positive allosteric modulation of human mGlu4 receptor expressed in L929sA cells assessed as calcium mobilization by fluorescence analysis; assay type: functional, cell-based
[12] = biological target: Metabotropic glutamate receptor 6 (Rattus norvegicus, UniProt P35349); experiment: Positive allosteric modulation of rat mGlu6 receptor expressed in CHO cells by [35S]-GTPgammaS binding assay; assay type: functional, cell-based
[13] = biological target: T2, Metabotropic glutamate receptor 4; experiment: Positive allosteric modulation of human mGlu4 receptor expressed in HEK293 cells by [35S]-GTPgammaS binding assay; assay type: functional, cell-based

Compound	EC50 ([1]; read-out: EC50) [nM]	Emax [5] [%]	other results
O=C1c2cc(OCc3ccccc3)nn2CCN1c1ccc(F)cc1	160	54	fraction unbound [2]: 0.065; EC50 [3]: > 10000 nM; EC50 [4]: > 10000 nM; EC50 [6]: > 10000 nM; EC50 [7]: > 10000 nM; EC50 [8]: > 10000 nM; EC50 [9]: > 10000 nM; EC50 [10]: 3390 nM; EC50 [11]: > 10000 nM; EC50 [12]: > 10000 nM; EC50 [13]: > 10000 nM
O=C1c2cc(COc3ccccc3)nn2CCN1c1ncc(F)cn1	760	72	–
O=C1c2cc(COc3ccccc3)nn2CCN1c1cccnc1	2090	64	–
O=C1c2cc(COc3cccnc3)nn2CCN1c1ccc(F)cc1	3980	69	–
O=C1c2cc(OCc3ccccc3)nn2CCN1c1cc(F)ccn1	> 30000	–	–
Cc1c(COc2ccccc2)nn2c1C(=O)N(c1ccc(F)cc1)CC2	1230	32	–
O=C1c2cc(COc3ccccc3)nn2CCN1c1ccncc1	2090	72	–
O=C1c2cc(COc3ccccc3)nn2CCN1c1cccc(F)c1	130	81	–
O=C1c2cc(COc3ccccc3)nn2CCN1c1ccc(F)c(F)c1	87	81	–
O=C1c2cc(COc3ccccc3)nn2CCCN1c1ccc(F)cc1	220	79	EC50 ([1]; read-out: pEC50 (converted)): 87.1 nM; EC50 [10]: 540 nM
O=C1c2cc(COc3ccc(F)cn3)nn2CCN1c1ccc(F)cc1	7940	52	–
O=C1c2cc(COc3cccc(F)c3)nn2CCN1c1ccc(F)cn1	91	62	–
O=C1c2cc(COc3ccccc3F)nn2CCN1c1ccc(F)cc1	150	66	–
O=C1c2cc(COc3ccncc3)nn2CCN1c1ccc(F)cc1	690	69	–
O=C1c2cc(COc3ccccn3)nn2CCN1c1ccc(F)cc1	490	68	EC50 [10]: 290 nM
